In ChEMBL document CHEMBL2069199, “Development of isoform selective PI3-kinase inhibitors as pharmacological tools for elucidating the PI3K pathway” (Bioorg Med Chem Lett, 2012):
pIC50, pKi: −log10 of the molar value.

Experiments:
[1] = target: T1, Phosphatidylinositol 4,5-bisphosphate 3-kinase catalytic subunit gamma isoform (Homo sapiens, UniProt P48736)
Description: Inhibition of recombinant GST-tagged PI3K p110gamma using [32P]ATP after 60 mins by scintillation proximity assay

[2] = Antiinflammatory activity in human neutrophils assessed as inhibition of fMLP-induced oxidative burst; format: functional, cell-based; settings: neutrophil
[3] = target: T2, Phosphatidylinositol 4,5-bisphosphate 3-kinase catalytic subunit beta isoform (Homo sapiens, UniProt P42338); assay: Inhibition of recombinant GST-tagged PI3K p110beta using [32P]ATP after 60 mins by scintillation proximity assay
[4] = target: T3, Phosphatidylinositol 4,5-bisphosphate 3-kinase catalytic subunit delta isoform (Homo sapiens, UniProt O00329); assay: Inhibition of recombinant GST-tagged PI3K p110delta using [32P]ATP after 60 mins by scintillation proximity assay
T3 sequence (O00329 whole entry): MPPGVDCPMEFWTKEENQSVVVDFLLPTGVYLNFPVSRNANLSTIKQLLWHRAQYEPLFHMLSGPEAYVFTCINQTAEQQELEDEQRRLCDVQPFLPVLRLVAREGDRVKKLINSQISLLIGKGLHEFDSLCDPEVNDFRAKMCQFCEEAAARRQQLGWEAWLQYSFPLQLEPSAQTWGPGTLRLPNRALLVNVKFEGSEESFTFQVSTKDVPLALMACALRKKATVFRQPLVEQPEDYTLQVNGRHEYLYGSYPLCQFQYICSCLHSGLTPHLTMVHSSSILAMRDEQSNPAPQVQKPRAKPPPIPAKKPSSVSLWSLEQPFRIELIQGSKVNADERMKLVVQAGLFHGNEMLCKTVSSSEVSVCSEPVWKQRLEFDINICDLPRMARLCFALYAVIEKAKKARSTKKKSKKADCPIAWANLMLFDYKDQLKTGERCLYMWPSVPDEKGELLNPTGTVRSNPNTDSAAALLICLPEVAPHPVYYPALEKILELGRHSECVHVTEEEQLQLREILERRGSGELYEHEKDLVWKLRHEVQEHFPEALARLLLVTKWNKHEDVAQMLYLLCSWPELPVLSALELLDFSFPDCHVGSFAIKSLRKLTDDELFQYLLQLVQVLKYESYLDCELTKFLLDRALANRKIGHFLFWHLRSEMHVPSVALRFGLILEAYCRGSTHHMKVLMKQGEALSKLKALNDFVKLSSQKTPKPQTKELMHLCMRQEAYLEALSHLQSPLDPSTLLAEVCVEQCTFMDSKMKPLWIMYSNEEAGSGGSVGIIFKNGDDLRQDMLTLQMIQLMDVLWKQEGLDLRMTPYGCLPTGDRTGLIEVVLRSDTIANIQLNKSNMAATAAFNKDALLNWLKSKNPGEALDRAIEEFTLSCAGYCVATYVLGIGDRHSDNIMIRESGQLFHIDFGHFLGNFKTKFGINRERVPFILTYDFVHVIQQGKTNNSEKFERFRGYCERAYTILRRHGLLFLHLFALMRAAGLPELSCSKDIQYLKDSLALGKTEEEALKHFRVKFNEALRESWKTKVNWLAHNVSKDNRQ

[5] = target: T4, Phosphatidylinositol 4,5-bisphosphate 3-kinase catalytic subunit alpha isoform (Homo sapiens, UniProt P42336); assay: Inhibition of recombinant GST-tagged PI3K p110alpha using [32P]ATP after 60 mins by scintillation proximity assay
[6] = target: T1, Phosphatidylinositol 4,5-bisphosphate 3-kinase catalytic subunit gamma isoform; assay: Inhibition of recombinant GST-tagged PI3K p110gamma by KinaseGlo assay
[7] = target: T3, Phosphatidylinositol 4,5-bisphosphate 3-kinase catalytic subunit delta isoform; assay: Inhibition of recombinant GST-tagged PI3K p110delta by KinaseGlo assay
[8] = target: T2, Phosphatidylinositol 4,5-bisphosphate 3-kinase catalytic subunit beta isoform; assay: Inhibition of recombinant GST-tagged PI3K p110beta by KinaseGlo assay
[9] = target: T4, Phosphatidylinositol 4,5-bisphosphate 3-kinase catalytic subunit alpha isoform; assay: Inhibition of recombinant GST-tagged PI3K p110alpha by KinaseGlo assay
Rattus norvegicus [10] = assay: (§1) AUC in Wistar rat at 10 mg/kg, po; format: ADME, organism-based, Plasma; set-up: dose 10 mg/kg, route oral; settings: in vivo
[11] = target: Serine/threonine-protein kinase mTOR (Homo sapiens, UniProt P42345); assay: Inhibition of mTOR
[12] = Cmax in Wistar rat at 10 mg/kg, po; format: ADME, organism-based; set-up: dose 10 mg/kg, route oral; settings: in vivo
[13] = Tmax in Wistar rat at 10 mg/kg, po; format: ADME, organism-based; set-up: dose 10 mg/kg, route oral; settings: in vivo
Rattus norvegicus [14] = assay: Volume of distribution at steady state in Wistar rat at 10 mg/kg, po; format: ADME, organism-based; set-up: dose 10 mg/kg, route oral; settings: in vivo
[15] = Aqueous solubility of the compound at pH 6.8; format: physicochemical
[16] = target: Phosphatidylinositol 4-kinase beta (Homo sapiens, UniProt Q9UBF8); assay: Inhibition of PI4Kbeta
[17] = Antiinflammatory activity in human B cells assessed as inhibition of mitogen-induced proliferation; format: functional, cell-based; settings: B-cell
[18] = target: DNA-dependent protein kinase catalytic subunit (Homo sapiens, UniProt P78527); assay: Inhibition of DNA-PK
[19] = Oral bioavailability in Wistar rat at 10 mg/kg; format: ADME, organism-based; settings: in vivo
[20] = Half life in Wistar rat at 10 mg/kg, po; format: ADME, organism-based; set-up: dose 10 mg/kg, route oral; settings: in vivo
[21] = Antiinflammatory activity in mouse B cells assessed as inhibition of mitogen-induced proliferation; format: functional, cell-based
[22] = target: Phosphatidylinositol 3-kinase catalytic subunit type 3 (Homo sapiens, UniProt Q8NEB9); assay: Inhibition of Vps34
[23] = as §1; format: ADME, organism-based, Plasma; set-up: dose 10 mg/kg, route oral; settings: Wistar, plasma
[24] = Clearance in Wistar rat at 10 mg/kg, po; format: ADME, organism-based; set-up: dose 10 mg/kg, route oral; settings: in vivo
[25] = Clearance in Wistar rat at 5 mg/kg, po; format: ADME, organism-based; set-up: dose 5 mg/kg, route oral; settings: in vivo
[26] = Half life in Wistar rat at 5 mg/kg, po; format: ADME, organism-based; set-up: dose 5 mg/kg, route oral; settings: in vivo
[27] = target: Dual specificity protein kinase CLK1 (Homo sapiens, UniProt P49759); assay: Inhibition of CLK1
[28] = AUC in Wistar rat at 5 mg/kg, po; format: ADME, organism-based; set-up: dose 5 mg/kg, route oral; settings: plasma
[29] = Oral bioavailability in Wistar rat at 5 mg/kg; format: ADME, organism-based; settings: in vivo
[30] = target: Dual specificity protein kinase CLK2 (Homo sapiens, UniProt P49760); assay: Inhibition of CLK2
[31] = Tmax in Wistar rat at 5 mg/kg, po; format: ADME, organism-based; set-up: dose 5 mg/kg, route oral; settings: in vivo
[32] = Cmax in Wistar rat at 5 mg/kg, po; format: ADME, organism-based; set-up: dose 5 mg/kg, route oral; settings: in vivo
Rattus norvegicus [33] = assay: Volume of distribution at steady state in Wistar rat at 5 mg/kg, po; format: ADME, organism-based; set-up: dose 5 mg/kg, route oral; settings: in vivo

T1 sequence (P48736 whole entry, canonical isoform): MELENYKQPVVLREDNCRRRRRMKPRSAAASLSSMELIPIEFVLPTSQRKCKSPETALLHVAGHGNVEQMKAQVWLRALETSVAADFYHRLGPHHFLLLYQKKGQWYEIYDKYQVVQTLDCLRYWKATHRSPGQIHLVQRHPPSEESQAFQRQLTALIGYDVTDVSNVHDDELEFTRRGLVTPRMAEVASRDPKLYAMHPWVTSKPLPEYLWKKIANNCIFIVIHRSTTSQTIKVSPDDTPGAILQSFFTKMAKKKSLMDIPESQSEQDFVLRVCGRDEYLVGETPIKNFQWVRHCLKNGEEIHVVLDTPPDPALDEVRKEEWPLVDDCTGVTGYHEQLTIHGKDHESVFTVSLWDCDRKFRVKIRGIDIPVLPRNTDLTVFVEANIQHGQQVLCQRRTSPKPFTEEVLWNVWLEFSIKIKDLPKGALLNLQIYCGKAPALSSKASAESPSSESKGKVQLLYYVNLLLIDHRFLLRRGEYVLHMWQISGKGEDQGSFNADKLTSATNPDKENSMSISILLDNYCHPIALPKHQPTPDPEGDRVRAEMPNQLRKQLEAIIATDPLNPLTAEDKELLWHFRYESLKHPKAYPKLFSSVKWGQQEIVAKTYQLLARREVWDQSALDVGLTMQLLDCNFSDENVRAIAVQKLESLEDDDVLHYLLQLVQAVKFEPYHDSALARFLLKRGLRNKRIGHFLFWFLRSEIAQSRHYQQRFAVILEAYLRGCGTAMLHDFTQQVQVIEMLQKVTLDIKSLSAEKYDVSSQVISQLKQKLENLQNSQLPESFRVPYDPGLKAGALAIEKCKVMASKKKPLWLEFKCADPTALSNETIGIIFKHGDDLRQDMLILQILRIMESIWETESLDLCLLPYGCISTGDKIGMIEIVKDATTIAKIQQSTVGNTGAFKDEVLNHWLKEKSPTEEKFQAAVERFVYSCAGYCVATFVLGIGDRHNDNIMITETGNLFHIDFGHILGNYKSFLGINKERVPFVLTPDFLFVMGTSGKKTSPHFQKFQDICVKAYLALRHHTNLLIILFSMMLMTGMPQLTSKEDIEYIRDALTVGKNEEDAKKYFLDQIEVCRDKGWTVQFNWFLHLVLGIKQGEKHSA
T2 sequence (P42338 whole entry, canonical isoform): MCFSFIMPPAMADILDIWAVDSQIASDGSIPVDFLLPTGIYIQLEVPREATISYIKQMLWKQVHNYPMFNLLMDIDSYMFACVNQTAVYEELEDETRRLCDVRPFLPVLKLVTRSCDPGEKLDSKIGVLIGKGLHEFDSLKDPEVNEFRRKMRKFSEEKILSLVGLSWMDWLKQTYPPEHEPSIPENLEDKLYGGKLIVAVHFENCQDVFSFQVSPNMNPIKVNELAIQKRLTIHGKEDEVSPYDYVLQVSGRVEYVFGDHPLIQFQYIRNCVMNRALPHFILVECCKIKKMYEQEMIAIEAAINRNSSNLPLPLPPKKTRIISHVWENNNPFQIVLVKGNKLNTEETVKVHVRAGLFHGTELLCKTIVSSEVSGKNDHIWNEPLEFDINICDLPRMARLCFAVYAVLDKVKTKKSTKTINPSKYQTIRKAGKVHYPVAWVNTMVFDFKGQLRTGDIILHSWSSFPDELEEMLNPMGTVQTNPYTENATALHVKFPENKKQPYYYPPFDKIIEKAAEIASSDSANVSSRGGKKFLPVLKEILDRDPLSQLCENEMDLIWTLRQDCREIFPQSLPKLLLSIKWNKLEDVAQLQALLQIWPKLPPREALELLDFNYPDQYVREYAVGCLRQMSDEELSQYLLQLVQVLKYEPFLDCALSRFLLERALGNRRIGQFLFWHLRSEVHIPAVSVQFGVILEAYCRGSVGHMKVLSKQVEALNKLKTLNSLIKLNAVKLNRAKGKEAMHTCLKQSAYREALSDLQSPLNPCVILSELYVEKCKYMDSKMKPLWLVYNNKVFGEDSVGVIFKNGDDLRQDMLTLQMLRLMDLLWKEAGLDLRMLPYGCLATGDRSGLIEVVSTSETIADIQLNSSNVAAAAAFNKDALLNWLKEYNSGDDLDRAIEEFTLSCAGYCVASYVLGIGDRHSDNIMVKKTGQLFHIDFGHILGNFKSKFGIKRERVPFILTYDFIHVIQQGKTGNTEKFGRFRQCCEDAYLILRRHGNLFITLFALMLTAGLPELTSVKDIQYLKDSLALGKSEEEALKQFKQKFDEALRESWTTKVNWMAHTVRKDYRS
Phosphatidylinositol 4-kinase beta, sequence (Q9UBF8 whole entry): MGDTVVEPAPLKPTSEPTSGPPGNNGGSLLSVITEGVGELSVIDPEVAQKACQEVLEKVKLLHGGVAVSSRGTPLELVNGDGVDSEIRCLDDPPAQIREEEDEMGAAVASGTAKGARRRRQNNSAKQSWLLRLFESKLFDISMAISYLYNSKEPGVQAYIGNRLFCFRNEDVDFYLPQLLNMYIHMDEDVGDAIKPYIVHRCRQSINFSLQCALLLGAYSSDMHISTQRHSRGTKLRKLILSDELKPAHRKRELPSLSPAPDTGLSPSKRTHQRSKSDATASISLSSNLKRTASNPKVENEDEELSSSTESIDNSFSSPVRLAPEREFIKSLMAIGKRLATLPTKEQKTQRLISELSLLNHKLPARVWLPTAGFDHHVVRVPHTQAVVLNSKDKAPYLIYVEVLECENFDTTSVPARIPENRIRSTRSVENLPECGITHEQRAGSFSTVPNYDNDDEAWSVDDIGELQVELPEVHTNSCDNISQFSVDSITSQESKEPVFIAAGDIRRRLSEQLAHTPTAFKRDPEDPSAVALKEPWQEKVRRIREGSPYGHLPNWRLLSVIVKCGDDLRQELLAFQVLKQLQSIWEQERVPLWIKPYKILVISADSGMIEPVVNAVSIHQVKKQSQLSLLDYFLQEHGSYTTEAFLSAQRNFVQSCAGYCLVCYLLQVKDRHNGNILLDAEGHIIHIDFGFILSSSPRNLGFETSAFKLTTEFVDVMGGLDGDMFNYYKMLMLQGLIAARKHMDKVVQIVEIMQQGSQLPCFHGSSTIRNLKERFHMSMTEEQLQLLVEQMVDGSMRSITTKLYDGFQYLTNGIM
T4 sequence (P42336 whole entry, canonical isoform): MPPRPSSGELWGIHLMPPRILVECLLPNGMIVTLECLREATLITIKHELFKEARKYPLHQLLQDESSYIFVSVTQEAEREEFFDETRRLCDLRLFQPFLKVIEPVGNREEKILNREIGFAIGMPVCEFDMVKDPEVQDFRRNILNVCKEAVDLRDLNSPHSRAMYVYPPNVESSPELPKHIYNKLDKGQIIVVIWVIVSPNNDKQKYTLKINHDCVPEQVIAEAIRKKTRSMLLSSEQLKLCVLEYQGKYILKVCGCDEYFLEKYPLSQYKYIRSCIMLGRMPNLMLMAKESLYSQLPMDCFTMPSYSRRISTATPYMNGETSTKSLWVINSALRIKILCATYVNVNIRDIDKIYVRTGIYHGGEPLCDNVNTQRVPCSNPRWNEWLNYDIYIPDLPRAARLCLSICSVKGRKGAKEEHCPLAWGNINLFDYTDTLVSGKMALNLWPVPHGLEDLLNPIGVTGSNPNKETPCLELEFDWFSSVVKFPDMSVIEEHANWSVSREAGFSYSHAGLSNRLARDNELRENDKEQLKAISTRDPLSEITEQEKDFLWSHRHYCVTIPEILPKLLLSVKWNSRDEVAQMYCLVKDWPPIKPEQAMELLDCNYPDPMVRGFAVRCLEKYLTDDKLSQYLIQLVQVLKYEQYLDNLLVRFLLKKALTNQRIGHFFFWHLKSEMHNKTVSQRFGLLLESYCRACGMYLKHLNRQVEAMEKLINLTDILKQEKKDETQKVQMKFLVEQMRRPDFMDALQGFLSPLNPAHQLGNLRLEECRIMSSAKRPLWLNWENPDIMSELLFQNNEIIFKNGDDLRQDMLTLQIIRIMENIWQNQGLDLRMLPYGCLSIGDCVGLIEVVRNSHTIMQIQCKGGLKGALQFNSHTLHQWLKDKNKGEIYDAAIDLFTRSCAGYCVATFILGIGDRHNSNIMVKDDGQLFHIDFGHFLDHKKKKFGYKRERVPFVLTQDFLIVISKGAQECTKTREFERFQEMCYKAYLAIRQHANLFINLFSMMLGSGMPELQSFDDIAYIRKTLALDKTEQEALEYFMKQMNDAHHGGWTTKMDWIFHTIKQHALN
Phosphatidylinositol 3-kinase catalytic subunit type 3, sequence (Q8NEB9 whole entry): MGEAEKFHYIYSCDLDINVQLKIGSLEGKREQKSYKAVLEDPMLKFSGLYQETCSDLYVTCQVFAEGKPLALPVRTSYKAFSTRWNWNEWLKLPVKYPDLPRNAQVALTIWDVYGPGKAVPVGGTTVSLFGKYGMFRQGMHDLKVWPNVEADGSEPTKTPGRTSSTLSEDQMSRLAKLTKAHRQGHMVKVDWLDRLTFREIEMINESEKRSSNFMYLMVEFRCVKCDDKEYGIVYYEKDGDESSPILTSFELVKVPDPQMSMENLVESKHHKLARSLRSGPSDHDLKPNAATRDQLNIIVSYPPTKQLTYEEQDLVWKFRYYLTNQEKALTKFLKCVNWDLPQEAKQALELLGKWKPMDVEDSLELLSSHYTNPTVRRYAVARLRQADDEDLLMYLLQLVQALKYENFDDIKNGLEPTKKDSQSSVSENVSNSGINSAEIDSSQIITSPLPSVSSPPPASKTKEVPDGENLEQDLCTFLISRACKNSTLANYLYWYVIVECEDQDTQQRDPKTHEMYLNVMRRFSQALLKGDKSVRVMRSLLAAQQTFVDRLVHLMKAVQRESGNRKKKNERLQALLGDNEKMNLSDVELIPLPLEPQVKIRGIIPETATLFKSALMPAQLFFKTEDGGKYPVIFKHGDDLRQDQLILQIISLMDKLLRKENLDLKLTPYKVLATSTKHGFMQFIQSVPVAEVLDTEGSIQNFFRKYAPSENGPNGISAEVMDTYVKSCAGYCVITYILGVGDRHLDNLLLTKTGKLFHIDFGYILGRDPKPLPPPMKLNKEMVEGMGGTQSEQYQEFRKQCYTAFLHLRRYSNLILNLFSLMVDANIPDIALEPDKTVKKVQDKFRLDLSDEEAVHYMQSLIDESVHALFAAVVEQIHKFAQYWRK

Row | pKi [1] | pIC50 [2] | pKi [3] | pKi [4] | pKi [5] | Structure (SMILES) | further results
1 | 6.59 | 5.75 | 5.71 | 6.59 | 6.72 | CC(=O)Nc1nc(C)c(-c2ccc(C(C)=O)cc2)s1 | –
2 | – | – | – | – | – | NC(=O)[C@@H]1CCCN1C(=O)Nc1nc2ccc(-c3cnc(N)c(C(F)(F)F)c3)cc2s1 | pIC50 [6]: 5.92; pIC50 [7]: 6.27; pIC50 [8]: 5.53; pIC50 [9]: 7.40
3 | 5.99 | 6.14 | 6.47 | 8.40 | 6.82 | Cc1cc(NC(=O)CCNC(=O)Nc2nc(C)c(-c3ccc(-n4cccn4)cc3)s2)no1 | AUC (Rattus norvegicus [10]): 0.69 µM·h; pIC50 [11]: < 5.04; Cmax [12]: 50 nM; Tmax [13]: 480 min; Vdss (Rattus norvegicus [14]): 0.4 L/kg; solubility [15]: < 2 µg/mL; pIC50 [16]: 7.40; pIC50 [17]: 8.30; pIC50 [18]: < 5.00; bioavailability [19]: 3%; half-life [20]: 36 min; pIC50 [21]: 7.85; pIC50 [22]: < 5.04
4 | 7.70 | – | 7.05 | 6.42 | 5.67 | Cc1nc(NC(=O)NCCC(=O)OC(C)(C)C)sc1-c1ccc(S(C)(=O)=O)c(F)c1 | –
5 | 6.92 | – | 6.07 | 8.52 | 6.96 | Cc1cc(NC(=O)CCNC(=O)Nc2nc(C)c(-c3ccc(S(C)(=O)=O)c(F)c3)s2)no1 | –
6 | – | 6.66 | 6.60 | 6.13 | 5.72 | CC(=O)c1ccc(-c2sc(NC(=O)NCCC(=O)NC(C)(C)C)nc2C)cc1 | AUC [23]: 10.8 µM·h; pIC50 [11]: < 5.04; Cmax [12]: 1720 nM; Tmax [13]: 30 min; Vdss (Rattus norvegicus [14]): 1.4 L/kg; pIC50 [16]: 6.62; pIC50 [17]: 5.94; pIC50 [18]: < 5.00; bioavailability [19]: 57%; CL/F [24]: 23 mL/min/kg; half-life [20]: 48 min; pIC50 [21]: 6.12; pIC50 [22]: < 5.04
7 | 6.96 | 5.59 | 5.84 | 6.68 | 6.96 | CC(=O)Nc1nc(C)c(-c2ccc(S(N)(=O)=O)cc2)s1 | –
8 | – | 6.66 | – | – | – | CC(=O)Nc1nc(C)c(-c2ccc(S(C)(=O)=O)c(F)c2)s1 | –
9 | 7.49 | 6.47 | 6.26 | 7.21 | 7.96 | CC(=O)Nc1nc(C)c(-c2ccc(S(C)(=O)=O)c(Br)c2)s1 | –
10 | 7.21 | 6.54 | 6.06 | 7.13 | 7.55 | CC(=O)Nc1nc(C)c(-c2ccc(S(C)(=O)=O)c(C(F)(F)F)c2)s1 | –
11 | 6.96 | 6.49 | 6.39 | 7.72 | 7.52 | CC(=O)Nc1nc(C)c(-c2ccc(-n3cccn3)cc2)s1 | –
12 | 6.28 | 6.03 | 5.70 | 6.66 | 8.30 | Cc1nc(NC(=O)N2CCC[C@H]2C(N)=O)sc1-c1ccc(-n2cccn2)cc1 | AUC [23]: 4.1 µM·h; pIC50 [11]: < 5.04; Cmax [12]: 280 nM; Tmax [13]: 240 min; Vdss (Rattus norvegicus [14]): 1.29 L/kg; pIC50 [16]: 6.04; pIC50 [17]: 6.49; pIC50 [18]: < 5.00; bioavailability [19]: 21%; CL/F [24]: 21 mL/min/kg; half-life [20]: 42 min; pIC50 [21]: 6.43; pIC50 [22]: < 5.04
13 | 5.94 | – | < 5.00 | 5.78 | 7.70 | Cc1nc(NC(=O)N2CCC[C@H]2C(N)=O)sc1-c1ccc(S(C)(=O)=O)c(C(F)(F)F)c1 | –
14 | 7.24 | 5.71 | 5.89 | 7.10 | 7.46 | CC(=O)Nc1nc(C)c(-c2ccc(S(C)(=O)=O)c(Cl)c2)s1 | –
15 | 7.21 | 6.52 | 6.12 | 7.10 | 7.35 | CC(=O)Nc1nc(C)c(-c2ccc(S(C)(=O)=O)c(C#N)c2)s1 | –
16 | 6.64 | 5.71 | 5.87 | 6.72 | 6.70 | CC(=O)Nc1nc(C)c(-c2ccc(S(C)(=O)=O)cc2)s1 | –
17 | 5.24 | – | < 5.00 | 5.44 | 6.73 | Cc1nc(NC(=O)N2CCC[C@H]2C(N)=O)sc1-c1ccc(S(C)(=O)=O)cc1 | –
18 | – | 6.57 | 6.49 | 6.33 | 5.85 | CCn1nnc(CCNC(=O)Nc2nc(C)c(-c3ccc(S(C)(=O)=O)c(F)c3)s2)n1 | pIC50 [11]: < 5.04; CL/F [25]: 4 mL/min/kg; half-life [26]: 108 min; pIC50 [27]: 6.93; AUC [28]: 4.31 µM·h; bioavailability [29]: 24%; pIC50 [30]: 6.93; Tmax [31]: 60 min; pIC50 [16]: 5.88; pIC50 [17]: 5.79; Cmax [32]: 490 nM; pIC50 [18]: < 5.00; pIC50 [21]: 6.23; pIC50 [22]: < 5.04; Vdss (Rattus norvegicus [33]): 0.6 L/kg
